Entries after “also recorded” stand apart in the source; their conditions may differ.
Key:
CT26 tumor-bearing mice [1] = test: Survival of CT26 tumor-bearing mice (Kaplan-Meier); settings: mouse, in vivo; for survival of tumor-bearing mice: ip
CT26 tumor-bearing mice [2] = test: Tumor cachexia in CT26 tumor-bearing mice: tumor-free body weight, muscle weight, muscle membrane proteins; format: in vivo, mouse
LRP6 and Kremen2 = test: Intramuscular injection of Dkk1, Western blot of membrane LRP6 and Kremen2; format: in vivo, mouse
Description: Wild-type mice and β-arrestin2+/−KO mice were injected into the left quadriceps (0.25 mg/kg) and an equal volume of PBS was injected into the right leg as controls. MDC (10 mg/kg), IGFBP-4/H95P (1.7 mg/kg) or PBS were injected in combination with Dkk1 as a control to observe the effects of drugs on Dkk1-induced signal transduction. After 48 hours, the mice were sacrificed, and the left and right quadriceps were taken to measure the […].
Membrane proteins were extracted according to the instructions of Membrane Protein Extraction Kit (Sangon Biotech, China). Western blot analysis omitted. Antibodies for WB analysis were purchased from Cell Signaling Technology and Proteintech.

HUVEC cells = test: γH2AX DNA damage response in HUVEC cells (Western blot); format: cell-based
Description: (2) The transfection system of a 3.5 cm petri dish was prepared as follows: 1 μl of siRNA Oligo/Red (concentration of the original solution was 20 μM) was added to an EP tube containing 250 μl of pure Opti-MEM and mixed, and 1.5 μl of RNAiMAX (transfection Reagent) was added to the flow tube containing 250 μl of pure Opti-MEM and mixed, and then all the liquid in the EP tube was added to the flow tube and mixed, and allowed to stand at room temperature for 15 min.
(3) The prepared transfection system was added to a 3.5 cm culture dish, and the cells were cultured for 24-48 h, then the samples were collected and the total cell protein was extracted, and the knockdown effect of the gene was identified by Western Blotting.
(3) Add 150 μl of total protein lysate to each cell sample to make the lysate fully contact with the cells, scrape off the cell lysate with a scraper, collect it into a pre-cooled EP tube, and take an ice bath for 15 min.
(§1) Protein electrophoresis gels are double-layered gels, including an upper stacking gel and a lower separating gel. The concentration of the stacking gel is 5%, and the concentration of the separating gel is determined according to the molecular weight of the target protein. In this study, large molecular weight proteins (LRP5/6, β-catenin, β-arrestin1/2) used 8%-5% double-layer gel, and small molecular weight proteins (γH2AX, p53, p21, Bcl-2, Bax, Cleaved Caspase-3) used 12%-5% double-layer gel. In addition, the number of wells (10 wells or 15 wells) and thickness (1 mm or 1.5 mm) of the preparation gel were selected according to the number and volume of protein samples loaded. The gel formulation is shown in the experimental material section, and the preparation steps are as follows: […]

β-arrestin1/2 = β-arrestin1/2 translocation in HUVEC cells (Western blot); format: cell-based
Description: (§2) (5) Add 100 μl (cell) or 200 μl (tissue) A solution to each sample, and resuspend the cell pellet with a pipette to completely disperse the pellet. The tissue pellet should be fully homogenized on ice with a homogenizer, and the ice bath should be used for 15 min.
(§3) (10) Add 50 μl (cells) or 100 μl (tissue) B solution to each sample, resuspend the pellet in Vortex at the highest speed for 10 s, ice bath for 10 min, and repeat twice to fully extract membrane proteins.
as §1

[3] = system: STZ-induced diabetic mice; test: STZ-induced type 1 diabetes mouse model with insulin or MDC rescue; format: in vivo
Description: STZ-induced diabetes is a chemical modeling method for diabetes. Its full name is streptozotocin, which is a broad-spectrum antibiotic isolated from achromatic streptomycin. It can selectively damage islet 13 cells in a short period of time, causing 13 cell necrosis, resulting in varying degrees of blood insulin drop and blood sugar rise, resulting in insulin-dependent type 1 diabetes mellitus. […] Modelling criteria are non-fasting blood glucose values above 13.8 mM (250 mg/dl). The modeling steps are as follows: (4) According to the body weight, mice in the model group were injected intraperitoneally with 2% STZ-citric acid solution (160 mg/kg), and the mice in the control group were intraperitoneally injected with the corresponding volume of citrate buffer. 2 h after the injection, the mice were fed back. […] Specific steps are as follows: (3) According to the body weight, the insulin rescue group was subcutaneously injected with diluted insulin (1 U/kg/day), once a day at the same time for 7 consecutive days, and the control group was given a corresponding volume of normal saline. […] Body weight and random blood glucose were measured at different time points after injection. […] (1) Sample preparation: Store the freshly obtained mouse blood in an EDTA anticoagulation tube, stand at room temperature for 10 min, centrifuge at 1000 g for 15 min, and collect the supernatant, namely plasma. If it cannot be detected immediately, it should be subpackaged and stored at −80° C. to avoid repeated freezing. If precipitation occurs during storage, it should be fully thawed at room temperature before use, and centrifuged again.

Leptin−/− mice = Leptin−/− mice injected with D-glucose, MDC rescue; format: in vivo, mouse; settings: 6-week-old Leptin−/− mice, D-glucose every 2 h for 24 h
Description: The in vivo rescue experiment of MDC in Leptin^−/− mice was performed by pre-intraperitoneal injection of MDC in 6-week-old Leptin^−/− mice (diluted in sterile PBS, 10 mg/kg) or the corresponding volume of DMSO (diluted in sterile PBS). The injected dose of MDC in Leptin^−/− mice should be calculated based on the body weight of 6-week-old littermates of WT mice. After 1 h of MDC intervention, 50% D-glucose or the corresponding volume of PBS was injected intraperitoneally. The procedure of injecting D-glucose into Leptin^−/− mice was as follows: 12 injections were performed every 2 hours during the 24-hour period, and the injection dose of D-glucose was fixed at the first dose (2 g/kg).

wild-type mice heart = test: Local injection of Dkk1 protein into the heart combined with MDC or BIM-46187; format: in vivo, mouse
Description: In the experiment of local injection of Dkk1 purified protein into the heart combined with MDC intervention, 10-week-old wild-type male mice were selected, the left chest was depilated, and intraperitoneal injection of MDC (diluted in sterile PBS, 10 mg/kg) or the corresponding volume of DMSO (diluted in sterile PBS) and injected at the same time every day thereafter. After 1 h of MDC intervention, cardiac Dkk1 protein injection was performed. The mice were given continuous inhalation anesthesia with 1% isoflurane and oxygenated with a ventilator, and then the fourth intercostal space near the sternum was opened to expose the heart. Using a 200 μl microsyringe, Dkk1 (10 μg of Dkk1 per heart, dissolved in 30 μl PBS) or an equal volume of PBS was injected locally at three sites in the heart. Of these, two sites are on the border around the left ventricle, and one site enters the myocardium of the left ventricle. After the injection, the wound was sutured, the anesthesia was removed, and the mice were awake. After MDC was continuously intervened for 2 days, the mice were anesthetized and the materials were collected.
In addition to injecting Dkk1 protein alone into the heart, we also need to perform experiments of local injection of Dkk1 combined with BIM-46187 into mouse hearts. According to the experimental grouping, it was divided into cardiac injections of four different solutions, including PBS, Dkk1, BIM-46187, and a mixture of Dkk1 and BIM-46187. The dosage of Dkk1 per heart is 10 μg, and the dosage of BIM-46187 is 2.4 ng, diluted with 30 μl PBS and then injected into the heart. The specific operation steps are the same as above. After the injection, the wound was sutured, the anesthesia was removed, and the mice were awake. Two days after the injection, the mice were anesthetized and the materials were collected.

[4] = system: GPCR signaling pathways and cachexia-related pathways; test: RNA-Seq analysis of quadriceps femoris; format: in vivo, mouse; settings: direct intramuscular injection of Dkk1 protein into the lower limbs
Description: Total RNA was extracted using Trizol kit (Lige technology), RNA sequencing library was constructed from the extracted RNA using Illlumina library preparation protocol, RNA-seq was performed on Illlumina HiSeq4000 platform, using two-terminal protocol, the length of both regions was 150 bp. Sequencing reads were aligned to annotated mouse transcripts (mm10) using hisat2 (v2.1.0). Using GFOLD (v1.1.4) to calculate the gene expression level and has found differentially expressed genes. The parameters are as follows: GFOLD value≠0, and the changing value of the two samples is ≥1.35. The RNA-seq data collector GSE121873 was uploaded to the gene expression comprehensive database. KEGG pathway analysis was performed on the defined genes.

LRP5/6 = test: Membrane LRP5/6 endocytosis and nuclear β-catenin in HUVEC cells (Western blot); format: cell-based
Description: as §2, §3
(11) Aspirate the residual supernatant completely, and add 50 μl of nuclear protein extract to each sample.
as §1

Molecule: CN(C)c1cccc2c(S(=O)(=O)NCCCCCN)cccc12 [MDC]
- death / shortened survival of tumor-bearing mice induced by Dkk1 injection (CT26 tumor-bearing mice [1]): prolong the shortening of survival in tumor-bearing mice caused by Dkk1; also recorded: inhibit the rapid death of tumor-bearing mice induced by Dkk1 injection
- survival of tumor-bearing mice (CT26 tumor-bearing mice [1]): prolongs the survival of CT26 mice
- loss of body weight and muscle weight (CT26 tumor-bearing mice [2]): reverse tumor-induced loss of tumor-free body weight and muscle atrophy; also recorded: completely prevents the loss of body weight and muscle weight
- downregulation of LRP6 and Kremen2 on membrane in muscle (CT26 tumor-bearing mice [2]; Western blot): reverses downregulation of LRP6 and Kremen2 on membrane
- Dkk1-induced endocytosis / downregulation of membrane LRP6 and Kremen2 (LRP6 and Kremen2; simultaneous injection with Dkk1): prevents this phenomenon
- γH2AX signaling enhanced by H2O2 in the presence of Dkk1 (HUVEC cells; Dkk1 then H2O2 50 μM): significantly attenuated
- H2O2-induced γH2AX activation (HUVEC cells; H2O2 50 μM, without Dkk1): does not prevent H2O2-induced γH2AX activation
- γH2AX response by the substance itself (HUVEC cells; no Dkk1, no H2O2): does not elicit γH2AX responses
- Dkk1-induced γH2AX activation (HUVEC cells; pretreatment with MDC or LRP6N protein): attenuated; also recorded: prevents
- Dkk1-induced translocation of β-arrestin1/2 (β-arrestin1/2; MDC pretreatment): prevent the above translocation changes of β-arrestin1/2; also recorded: prevents the translocation of β-arrestin1/2 into cells
- blood 8-OHdG (ELISA) ([3]; STZ diabetic mice): prevented the elevation of 8-OHdG
- blood glucose concentration ([3]; STZ diabetic mice): without altering blood glucose concentrations; also recorded: do not alter blood glucose levels
- body weight loss of diabetic mice ([3]; STZ diabetic mice): inhibits; also recorded: suppressed
- cardiac p53, p21, Bax/Bcl-2 and Cleaved Caspase-3 ([3]; STZ diabetic mice, heart): inhibits the upregulation of p53, p21, Bax/Bcl-2 and Cleaved Caspase-3
- cardiac γH2AX ([3]; STZ diabetic mice, heart): γH2AX activation in diabetic hearts can also be inhibited
- damage to myocardial structure (HE staining) ([3]; STZ diabetic mice, heart): prevented
- translocation of cardiac β-arrestin1/2 in diabetic hearts ([3]; STZ diabetic mice, heart): prevented
- overall LRP5/6 and nuclear or overall β-catenin expression levels ([3]; STZ diabetic mice, heart, MDC): remain unchanged
- LRP5/6 on the cardiac membrane ([3]; STZ diabetic mice, heart, Western blot): STZ-induced downregulation of LRP5/6 in diabetic cardiac membranes can be inhibited
- translocation of insulin receptors on the cardiac membrane or in the plasma ([3]; substance alone (FIG. 19G)): does not induce translocation of insulin receptors
- down-regulation of LRP5/6 on cardiac membranes induced by glucose injection (Leptin−/− mice): significantly reversed the down-regulation of LRP5/6 on cardiac membranes
- up-regulation of molecular markers of injury induced by glucose injection (Leptin−/− mice): significantly reversed
- Dkk1-induced cardiac β-arrestin1/2 translocation (wild-type mice heart; Dkk1 intracardiac injection with MDC or BIM-46187): inhibited
- Dkk1-induced cardiac changes (LRP5/6, γH2AX, p53, p21) (wild-type mice heart; Dkk1 intracardiac injection with MDC pretreatment or combined with BIM-46187): reversed

B1: Dkk1: recombinant mouse Dkk1 protein purchased from Genscript; secreted protein inducing LRP5/6 endocytosis (protein)
chain: TLNSVLINSNAIKNLPPPLGGAGGQPGSAVSVAPGVLYEGGNKYQTLDNYQPYPCAEDEECGSDEYCSSPSRGAAGVGGVQICLACRKRRKRCMRHAMCCPGNYCKNGICMPSDHSHFPRGEIEESIIENLGNDHNAAAGDGYPRRTTLTSKIYHTKGQEGSVCLRSSDCAAGLCCARHFWSKICKPVLKEGQVCTKHKRKGSHGLEIFQRCYCGEGLACRIQKDHHQASNSSRLHTCQRH
- survival of tumor-bearing mice (CT26 tumor-bearing mice [1]): significantly shorten the survival period of tumor-bearing mice
- membrane LRP6 and Kremen2 after intramuscular injection of Dkk1 (LRP6 and Kremen2; Dkk1 alone, lower limbs of normal mice): causes the endocytosis of LRP6 and Kremen2 on the membrane
- activation of GPCR signaling pathways and cachexia-related pathways [4]: immediately led to the activation of GPCR signaling pathways and cachexia-related pathways
- time of peak γH2AX activation (HUVEC cells; Dkk1 100 ng/ml): 15 min
- time to significant γH2AX activation (HUVEC cells; Dkk1 100 ng/ml): ≤ 5 min
- time after which nuclear β-catenin is down-regulated (LRP5/6; Dkk1 100 ng/ml): 60 min
- time from which endocytosis of LRP5 on the cell membrane is induced (LRP5/6; Dkk1 100 ng/ml): 15 min
- time from which endocytosis of LRP6 on the cell membrane is induced (LRP5/6; Dkk1 100 ng/ml): 5 min
- nuclear β-catenin expression within 30 min (LRP5/6; higher doses of Dkk1): does not down-regulate nuclear β-catenin expression
- β-arrestin1/2 translocation (cytoplasm / cell membrane) (β-arrestin1/2; Dkk1 stimulation alone): rapidly up-regulate β-arrestin1/2 in HUVEC cytoplasm and down-regulate β-arrestin1/2 on the cell membrane
- cardiac membrane LRP5/6, γH2AX, p53, p21 and β-catenin signaling (wild-type mice heart; Dkk1 purified protein injected into myocardium, alone): directly induce the down-regulation of LRP5/6 and the up-regulation of γH2AX, p53 and p21 on the cardiac membrane without affecting β-catenin signaling
- cardiac β-arrestin1/2 translocation (wild-type mice heart; direct injection of Dkk1 into the heart, alone): induces down-regulation of membrane β-arrestin1/2 and plasma β-arrestin1/2 and nuclear β-arrestin1 are up-regulated
- translocation of insulin receptors in cardiac cells (wild-type mice heart; direct injection of Dkk1 protein): do not undergo translocation changes

Reference: patent publication US20220349876A1, “USE OF DKK1 INHIBITOR IN PREVENTION AND/OR TREATMENT OF TUMOR CACHEXIA AND DISEASES ASSOCIATED WITH DIABETES” (SHANGHAI DONGTSU BIOSCIENCES CO., LTD., priority 2019, published 2022)
